# Assay results from article PMC7898037, “Improving mitochondria and ER stability helps eliminate upper motor neuron degeneration that occurs due to mSOD1 toxicity and TDP‐43 pathology” (Clinical and Translational Medicine, 2021).
# Experiment: Weight of the mice
# Type: in vivo
# Parameters: Mean Diff. of weight, vehicle vs. NU-9: unit not given here
# Settings: for Mean weight (Mean 2): hSOD1G93A-UeGFP mice, in g (unit assumed)
# Experimental: hSOD1^G93A‐UeGFP, prpTDP‐43^A315T‐UeGFP and WT‐UeGFP mice were weighed and the required NU‐9 dose per weight was calculated (20 or 100 mg/kg), which was administered once daily by oral gavage, starting at postnatal day (P)60 and continuing until P120. Animals from the untreated group received the vehicle (NMP and olive oil) only. For oral administration purposes, 20 ga × 38 mm plastic feeding tubes were used (Instech Laboratories, Inc). The gavage tip was inserted into the mouth directly over the tongue and into the pharynx. While observing the swallowing reflex, the tip was safely and smoothly slid into the esophagus. Once the administration was completed, the gavage tip was pulled straight out.
# Behavior data were collected from hSOD1^G93A‐UeGFP and WT‐UeGFP mice (starting at P60 and every 7 days until P116) and from prpTDP‐43^A315T‐UeGFP mice (at P60, P90, and P120) with the following number of mice for each group: WT‐UeGFP vehicle (n = 10), hSOD1^G93A‐UeGFP vehicle (n = 6), WT‐UeGFP 20 mg/kg/day NU‐9 (n = 5), hSOD1^G93A‐UeGFP 20 mg/kg/day NU‐9 (n = 7), WT‐UeGFP 100 mg/kg/day NU‐9 (n = 11), hSOD1^G93A‐UeGFP 100 mg/kg/day NU‐9 (n = 9), prpTDP‐43^A315T‐UeGFP untreated (n ≥ 3), and prpTDP‐43^A315T‐UeGFP 100 mg/kg/day NU‐9 (n = 4) (Table S3).
smiles,measurement,setting,value
C[C@H](Oc1cc(C(F)(F)F)cc(C(F)(F)F)c1)C1CC(=O)CC(=O)C1 [NU‐9],"Weight, Average","WT-UeGFP, NU-9 100 mg/kg/day po, P102",19.5 g
same,"Weight, Average","WT-UeGFP, NU-9 100 mg/kg/day po, P109",19.6 g
same,"Weight, Average","WT-UeGFP, NU-9 100 mg/kg/day po, P116",20.3 g
same,"Mean Diff. of weight, vehicle vs. NU-9","hSOD1G93A-UeGFP (vehicle) vs. hSOD1G93A-UeGFP (NU-9 20 mg/kg/day), P60, Tukey's multiple comparisons test",0.6667
same,"Mean Diff. of weight, vehicle vs. NU-9","hSOD1G93A-UeGFP (vehicle) vs. hSOD1G93A-UeGFP (NU-9 20 mg/kg/day), P67, Tukey's multiple comparisons test",0.6429
same,"Mean Diff. of weight, vehicle vs. NU-9","hSOD1G93A-UeGFP (vehicle) vs. hSOD1G93A-UeGFP (NU-9 20 mg/kg/day), P74, Tukey's multiple comparisons test",0.2381
same,"Mean Diff. of weight, vehicle vs. NU-9","hSOD1G93A-UeGFP (vehicle) vs. hSOD1G93A-UeGFP (NU-9 20 mg/kg/day), P81, Tukey's multiple comparisons test",0.5952
same,"Mean Diff. of weight, vehicle vs. NU-9","hSOD1G93A-UeGFP (vehicle) vs. hSOD1G93A-UeGFP (NU-9 20 mg/kg/day), P88, Tukey's multiple comparisons test",0.2857
same,"Mean Diff. of weight, vehicle vs. NU-9","hSOD1G93A-UeGFP (vehicle) vs. hSOD1G93A-UeGFP (NU-9 20 mg/kg/day), P95, Tukey's multiple comparisons test",0.7619
same,"Mean Diff. of weight, vehicle vs. NU-9","hSOD1G93A-UeGFP (vehicle) vs. hSOD1G93A-UeGFP (NU-9 20 mg/kg/day), P102, Tukey's multiple comparisons test",0.5714
same,"Mean Diff. of weight, vehicle vs. NU-9","hSOD1G93A-UeGFP (vehicle) vs. hSOD1G93A-UeGFP (NU-9 20 mg/kg/day), P109, Tukey's multiple comparisons test",0.4762
same,"Mean Diff. of weight, vehicle vs. NU-9","hSOD1G93A-UeGFP (vehicle) vs. hSOD1G93A-UeGFP (NU-9 20 mg/kg/day), P116, Tukey's multiple comparisons test",-0.1429
same,"Mean Diff. of weight, vehicle vs. NU-9","hSOD1G93A-UeGFP (vehicle) vs. hSOD1G93A-UeGFP (NU-9 100 mg/kg/day), P60, Tukey's multiple comparisons test",1.222
same,"Mean Diff. of weight, vehicle vs. NU-9","hSOD1G93A-UeGFP (vehicle) vs. hSOD1G93A-UeGFP (NU-9 100 mg/kg/day), P67, Tukey's multiple comparisons test",1.167
same,"Mean Diff. of weight, vehicle vs. NU-9","hSOD1G93A-UeGFP (vehicle) vs. hSOD1G93A-UeGFP (NU-9 100 mg/kg/day), P74, Tukey's multiple comparisons test",0.2222
same,"Mean Diff. of weight, vehicle vs. NU-9","hSOD1G93A-UeGFP (vehicle) vs. hSOD1G93A-UeGFP (NU-9 100 mg/kg/day), P81, Tukey's multiple comparisons test",0.7222
same,"Mean Diff. of weight, vehicle vs. NU-9","hSOD1G93A-UeGFP (vehicle) vs. hSOD1G93A-UeGFP (NU-9 100 mg/kg/day), P88, Tukey's multiple comparisons test",0.1111
same,"Mean Diff. of weight, vehicle vs. NU-9","hSOD1G93A-UeGFP (vehicle) vs. hSOD1G93A-UeGFP (NU-9 100 mg/kg/day), P95, Tukey's multiple comparisons test",0.1111
same,"Mean Diff. of weight, vehicle vs. NU-9","hSOD1G93A-UeGFP (vehicle) vs. hSOD1G93A-UeGFP (NU-9 100 mg/kg/day), P102, Tukey's multiple comparisons test",0
same,"Mean Diff. of weight, vehicle vs. NU-9","hSOD1G93A-UeGFP (vehicle) vs. hSOD1G93A-UeGFP (NU-9 100 mg/kg/day), P109, Tukey's multiple comparisons test",0.5556
same,"Mean Diff. of weight, vehicle vs. NU-9","hSOD1G93A-UeGFP (vehicle) vs. hSOD1G93A-UeGFP (NU-9 100 mg/kg/day), P116, Tukey's multiple comparisons test",0.1111
same,Mean weight (Mean 2),"NU-9 20 mg/kg/day, P60",17
same,Mean weight (Mean 2),"NU-9 20 mg/kg/day, P67",16.86
same,Mean weight (Mean 2),"NU-9 20 mg/kg/day, P74",16.43
same,Mean weight (Mean 2),"NU-9 20 mg/kg/day, P81",16.57
same,Mean weight (Mean 2),"NU-9 20 mg/kg/day, P88",16.71
same,Mean weight (Mean 2),"NU-9 20 mg/kg/day, P95",16.57
same,Mean weight (Mean 2),"NU-9 100 mg/kg/day, P60",16.44
same,Mean weight (Mean 2),"NU-9 100 mg/kg/day, P67",16.33
same,Mean weight (Mean 2),"NU-9 100 mg/kg/day, P74",16.44
same,Mean weight (Mean 2),"NU-9 100 mg/kg/day, P81",16.44
same,Mean weight (Mean 2),"NU-9 100 mg/kg/day, P88",16.89
same,Mean weight (Mean 2),"NU-9 100 mg/kg/day, P95",17.22
same,"Weight, Average","hSOD1G93A-UeGFP, NU-9 20 mg/kg/day po, P60",17 g
same,"Weight, Average","hSOD1G93A-UeGFP, NU-9 20 mg/kg/day po, P67",16.8571 g
same,"Weight, Average","hSOD1G93A-UeGFP, NU-9 20 mg/kg/day po, P74",16.4286 g
same,"Weight, Average","hSOD1G93A-UeGFP, NU-9 20 mg/kg/day po, P81",16.5714 g
same,"Weight, Average","hSOD1G93A-UeGFP, NU-9 20 mg/kg/day po, P88",16.7143 g
same,"Weight, Average","hSOD1G93A-UeGFP, NU-9 20 mg/kg/day po, P95",16.5714 g
same,"Weight, Average","hSOD1G93A-UeGFP, NU-9 20 mg/kg/day po, P102",16.4286 g
same,"Weight, Average","hSOD1G93A-UeGFP, NU-9 20 mg/kg/day po, P109",16.8571 g
same,"Weight, Average","hSOD1G93A-UeGFP, NU-9 20 mg/kg/day po, P116",17.1429 g
same,"Weight, Average","hSOD1G93A-UeGFP, NU-9 100 mg/kg/day po, P60",16.4444 g
same,"Weight, Average","hSOD1G93A-UeGFP, NU-9 100 mg/kg/day po, P67",16.3333 g
same,"Weight, Average","hSOD1G93A-UeGFP, NU-9 100 mg/kg/day po, P74",16.4444 g
same,"Weight, Average","hSOD1G93A-UeGFP, NU-9 100 mg/kg/day po, P81",16.4444 g
same,"Weight, Average","hSOD1G93A-UeGFP, NU-9 100 mg/kg/day po, P88",16.8889 g
same,"Weight, Average","hSOD1G93A-UeGFP, NU-9 100 mg/kg/day po, P95",17.2222 g
same,"Weight, Average","hSOD1G93A-UeGFP, NU-9 100 mg/kg/day po, P102",17 g
same,"Weight, Average","hSOD1G93A-UeGFP, NU-9 100 mg/kg/day po, P109",16.7778 g
same,"Weight, Average","hSOD1G93A-UeGFP, NU-9 100 mg/kg/day po, P116",16.8889 g
